For series [1], the system named is human platelets stimulated with collagen. Briefly: Inhibition of platelet aggregation in vitro (collagen-induced, platelet-rich plasma). Conditions: human PRP, 37° C. The series is classed as cell-based. On the procedure: Inhibition of Platelet Aggregation in vitro
To determine the platelet aggregation-inhibiting action, blood from healthy subjects of both sexes was used. One part of 3.8% strength aqueous sodium citrate solution was admixed to 9 parts of blood as an anticoagulant. Platelet-richer citrate plasma (PRP) is obtained from this blood by means of centrifugation.
For the investigations, 445 μl of PRP and 5 μl of the active compound solution were preincubated in a water-bath at 37° C. The platelet aggregation was then determined in an aggregometer at 37° C. using the turbidometric method. For this, 50 μl of collagen, an aggregation-inducing agent, were added to the preincubated sample and the change in optical density was recorded. For the quantitative evaluation, the maximum aggregation response was determined and the percentage inhibition compared with the control was calculated therefrom.
Inhibition of Platelet Pggregation in vitro
For these investigations, 445 μl of PRP and 5 μl of the active compound solution were preincubated in a water-bath at 37° C. The platelet aggregation was then determined in an aggregometer at 37° C. using the turbidometric method. For this, 50 μl of collagen, an aggregation-inducing agent, were added to the preincubated sample and the change in optical density was recorded. For the quantitative evaluation, the maximum aggregation response was determined and the percentage inhibition compared with the control was calculated therefrom.

The test system of series [2] is rabbit aortic rings precontracted with phenylephrine. Briefly: Vessel-relaxing action in vitro on isolated aortic rings precontracted with phenylephrine. Conditions: Oryctolagus cuniculus, rabbit aorta rings, phenylephrine contraction. Here is the method: Vessel-relaxing Action in vitro
Rings 1.5 mm wide of an aorta isolated from a rabbit are introduced individually, under pretension, in 5 ml organ baths with Krebs-Henseleit solution warmed to 37° C. and gassed with carbogen. The contraction force is amplified and digitalized and recorded in parallel on a line recorder. To generate a contraction, phenylephrine is added cumulatively to the bath in an increasing concentration.
After several control cycles, the substance to be investigated is investigated in each further pass in each case in an increasing dosage, and a comparison is made with the level of the contraction achieved in the last preliminary pass. The concentration necessary to reduce the level of the control value by 50% (IC50) is calculated from this. The standard application volume is 5 μl.
After several control cycles, the substance to be investigated is investigated in each further pass in each case in an increasing dosage, and a comparison is made with the level of the contraction achieved in the last preliminary pass. The concentration necessary to reduce the level of the control value by 50% (IC50) is calculated from this.
The standard application volume is 5 μl.

The target of series [3] is T1, soluble guanylate cyclase (Sus scrofa, UniProt A0A4X1U7N1+A0ACM8Q7I6).
T1 construct: endogenous in cells; host or cells: primary endothelial cells from pig aorta
T1 sequence (A0A4X1U7N1 1-619): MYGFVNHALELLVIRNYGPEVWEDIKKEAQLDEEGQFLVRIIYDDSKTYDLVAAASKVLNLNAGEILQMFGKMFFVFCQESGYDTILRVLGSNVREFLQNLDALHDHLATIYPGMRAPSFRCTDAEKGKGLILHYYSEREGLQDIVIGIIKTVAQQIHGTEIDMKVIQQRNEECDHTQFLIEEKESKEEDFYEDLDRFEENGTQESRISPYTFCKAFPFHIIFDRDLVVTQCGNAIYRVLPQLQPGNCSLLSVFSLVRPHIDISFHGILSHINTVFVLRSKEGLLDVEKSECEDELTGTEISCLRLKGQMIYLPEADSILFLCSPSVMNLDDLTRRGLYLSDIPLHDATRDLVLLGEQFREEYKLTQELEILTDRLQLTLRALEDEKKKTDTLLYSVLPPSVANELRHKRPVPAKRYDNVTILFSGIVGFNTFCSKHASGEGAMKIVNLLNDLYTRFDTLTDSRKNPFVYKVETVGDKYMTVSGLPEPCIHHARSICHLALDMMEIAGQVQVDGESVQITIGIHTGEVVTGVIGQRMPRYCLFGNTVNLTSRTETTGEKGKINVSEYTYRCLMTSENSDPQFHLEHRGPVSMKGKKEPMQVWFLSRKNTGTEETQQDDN
T1 sequence (A0ACM8Q7I6 1-688): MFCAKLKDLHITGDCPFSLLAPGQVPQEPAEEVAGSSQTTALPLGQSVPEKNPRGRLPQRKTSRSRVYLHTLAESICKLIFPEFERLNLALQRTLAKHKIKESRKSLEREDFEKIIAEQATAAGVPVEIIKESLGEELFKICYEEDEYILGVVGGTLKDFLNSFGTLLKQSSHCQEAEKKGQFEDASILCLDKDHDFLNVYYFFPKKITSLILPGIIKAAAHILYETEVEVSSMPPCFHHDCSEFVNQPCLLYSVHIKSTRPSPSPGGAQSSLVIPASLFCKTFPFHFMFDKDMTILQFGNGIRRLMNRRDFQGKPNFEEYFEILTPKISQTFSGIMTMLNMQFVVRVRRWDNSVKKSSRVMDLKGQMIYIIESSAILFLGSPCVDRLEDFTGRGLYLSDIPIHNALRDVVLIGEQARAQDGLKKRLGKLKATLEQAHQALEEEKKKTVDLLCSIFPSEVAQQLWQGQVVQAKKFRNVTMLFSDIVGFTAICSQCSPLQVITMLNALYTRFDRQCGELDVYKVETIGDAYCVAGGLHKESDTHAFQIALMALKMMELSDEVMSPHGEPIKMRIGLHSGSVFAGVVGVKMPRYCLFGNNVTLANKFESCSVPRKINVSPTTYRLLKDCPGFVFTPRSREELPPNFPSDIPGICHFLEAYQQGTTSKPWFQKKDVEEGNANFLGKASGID
Briefly: Stimulation of soluble guanylate cyclase in primary endothelial cells (intracellular cGMP, radioimmunological). The series is classed as cell-based. The following applies: test substance 1 μM, 10-minute incubation, primary pig aortic endothelial cells, with or without SNP 1 μM (not stated which); for activation at 1 µM: 10 min, read-out: % increase in cGMP. On the procedure: Stimulation of Soluble Guanylate Cyclase in Primary Endothelial Cells
(§1) Primary endothelial cells were isolated from pig aortas by treatment with collagenase solution. The cells were then cultured in a culture medium until confluence was reached. For the investigations, the cells were subjected to passaging, sown in cell culture plates and subcultured until confluence was reached. To stimulate the endothelial guanylate cyclase, the culture medium was suctioned off and the cells were washed once with Ringer's solution and incubated in stimulation buffer with or without an NO donor (sodium nitroprusside, SNP, 1 μM). Thereafter, the test substances (final concentration 1 μM) were pipetted onto the cells. At the end of the 10-minute incubation period, the buffered solution was suctioned off and the cells were lysed at −20° C. for 16 hours. The intracellular cGMP was then determined radioimmunologically.
as §1, with “sucked” for “suctioned”
as §1, with “without” for “without an”, “buffer” for “buffered”

Converted amounts (≈) assume the structure as drawn. Read-outs that look alike come from different tables or passages of the source.

Usually IC50 stands for the concentration that inhibits the measured activity by half. A high value points to lower potency. Usually melting point stands for the temperature, or range, at which the solid turns liquid.

In series [1] (embodiment III), `CCOC(=O)c1csc(-c2nn(Cc3ccccc3)c3ccccc23)n1` [III-72, Ethyl 2-(1-benzyl-indazol-3-yl)-thiazole-4-carboxylate] yielded an IC50 of 1 mg/L (≈ 2.75 µM).

Turning to `OCc1cccc(-c2nn(Cc3ccccc3F)c3ccccc23)n1` [II-62], the melting point is 99 °C. The compound further showed an IC50 in series [2] (embodiment II) of 13 µM.

In turn, `OCc1nnc(-c2nn(Cc3ccccc3)c3ccccc23)o1` [III-81] came in with a half-inhibitory concentration (IC50) in series [2] (embodiment III) of 12 µM. For the same compound, in series [3] (embodiment III), the activation at 1 µM was 110%.

Compound `Nc1nccc(-c2nn(Cc3ccccc3)c3ccccc23)n1` [II-53] returned a half-inhibitory concentration (IC50) in series [2] (embodiment II) of 18 µM. Besides, the activation at 1 µM in series [3] (embodiment II) was found to be 428%.

As to `c1ccc(Cn2nc(-c3ncccn3)c3ccccc32)cc1` [II-39], the IC50 in series [2] (embodiment II) is 11 µM. Further, in series [3] (embodiment II), the activation at 1 µM was determined as 909%.

In series [2] (embodiment II), `Cc1cncc(-c2nn(Cc3ccccc3)c3ccccc23)n1` [II-56] gave a half-inhibitory concentration (IC50) above 33 µM. Besides, the activation at 1 µM in series [3] (embodiment II) was 233%.

On to `N#Cc1cnc(-c2nn(Cc3ccccc3)c3ccccc23)nc1N` [II-49], for which it took 65 µM to reach half-maximal inhibition in series [2] (embodiment II) (IC50). For the same compound, the activation at 1 µM in series [3] (embodiment II) is above 1000%.

`OCc1coc(-c2nn(Cc3ccccc3)c3ccccc23)c1` [IV-164] showed a half-maximal inhibitory concentration (IC50) in series [2] (iv, embodiment IV) of 12 µM. Further, the activation at 1 µM in series [3] (embodiment IV) came to 289%.

In series [2] (embodiment III), `OCc1nnc(-c2nn(Cc3ccccc3F)c3ccccc23)o1` [III-79] returned an IC50 of 13 µM. Also, the “% increase in cGMP” value in series [3] (embodiment III) was determined as 124%.

As for `Cc1coc(-c2nn(Cc3ccccc3F)c3ccccc23)n1` [III-80], in series [2] (embodiment III), the IC50 stood at 3.6 µM. Besides, the activation at 1 µM in series [3] (embodiment III) was above 1000%.

Turning to `O=Cc1ccc(-c2nn(Cc3ccc(F)cc3)c3ccccc23)o1` [IV-148], it took 6.7 µM to reach half-maximal inhibition in series [2] (iv, embodiment IV) (IC50). For the same compound, the activation at 1 µM in series [3] (embodiment IV) stood at 978%.

`CC(=O)c1ccc(-c2nn(Cc3ccccc3)c3ccccc23)o1` [IV-140, 3-(5-Acetylfuran-2-yl)-1-benzyl-indazole] yielded an IC50 in series [2] (iv, embodiment IV) of 12 to 17 µM. The activation at 1 µM in series [3] (embodiment IV) was 619%.

In the case of `CNc1nc(-c2nn(Cc3ccccc3)c3ccccc23)ncc1Cl` [II-48], 13 µM corresponded to half-maximal inhibition in series [2] (embodiment II) (IC50). In series [3] (embodiment II), the activation at 1 µM was above 1000%.

As to `Cc1nc(-c2nn(Cc3ccccc3)c3ccccc23)oc1CO` [III-75], the IC50 in series [2] (embodiment III) was 2.2 µM. For the same compound, the activation at 1 µM in series [3] (embodiment III) is above 1000%.

As for `N#Cc1ccccc1Cn1nc(-c2ccc(CO)o2)c2ccccc21` [IV-136, 1-(^2-Cyanobenzyl)-3-(5-hydroxymethylfuran-2-yl)-indazole], the concentration for half-maximal inhibition (IC50) in series [2] (iv, embodiment IV) amounted to 7.2 µM; in series [1] (embodiment IV), 30 mg/L (≈ 91.1 µM). For the same compound, the activation at 1 µM in series [3] (embodiment IV) was above 1000%.

Regarding `Cc1cnc(-c2nn(Cc3ccccc3)c3ccccc23)nc1C` [II-38, 1-Benzyl-3-(4,5-dimethyl-2-pyrimidyl)indazole], the 50% inhibitory concentration (IC50) in series [2] (embodiment II) stood at 11 µM. In addition, the activation at 1 µM in series [3] (embodiment II) is above 1000%.

For the compound `Clc1nccc(-c2nn(Cc3ccccc3)c3ccccc23)n1` [II-50], the 50% inhibitory concentration (IC50) in series [2] (embodiment II) was above 31 µM. Also, the activation at 1 µM in series [3] (embodiment II) is 116%.

As to `OCc1ccc(-c2nn(Cc3c(F)cccc3F)c3ccccc23)o1` [IV-165], in series [2] (iv, embodiment IV), the IC50 turned out to be 29 µM. Further, the activation at 1 µM in series [3] (embodiment IV) is 256%.

Consider `OCc1cnc(-c2nn(Cc3ccccc3)c3ccccc23)o1` [III-71, 1-Benzyl-3-(5-hydroxymethyl-oxazol-2-yl)-indazole], for which the concentration for half-maximal inhibition (IC50) was found to be 5 µM in series [2] (embodiment III) and 50 mg/L (≈ 164 µM) in series [1] (embodiment III). For the same compound, the activation at 1 µM in series [3] (embodiment III) was 315%.

In series [2] (embodiment III), `c1ccc(Cn2nc(-c3ncco3)c3ccccc32)cc1` [III-87] displayed a concentration for half-maximal inhibition (IC50) of 19 µM. Further, the activation at 1 µM in series [3] (embodiment III) came to 268%.

Regarding `OCc1cccc(-c2nn(Cc3ccccc3)c3ccccc23)n1` [II-36, 1-Benzyl-3-(6-hydroxymethyl-2-pyridyl)indazole], half-maximal inhibition in series [2] (embodiment II) (IC50) was put at 13 µM. For the same compound, the activation at 1 µM in series [3] (embodiment II) was 225%.

Take `Cc1nc(-c2nn(Cc3ccccc3F)c3ccccc23)oc1CN1C(=O)c2ccccc2C1=O` [Process Example 11, 2-[1-(2-fluorobenzyl)-indazole-3-yl]-4-methyl-5-(N-phthalimidomethyl)-oxazole]: the melting point lay in the range of 175 to 177 °C.

For `OCc1csc(-c2nn(Cc3ccccc3)c3ccccc23)n1` [III-82], the IC50 in series [2] (embodiment III) turned out to be 15 µM. Besides, the activation at 1 µM in series [3] (embodiment III) was determined as 455%.

The values above are taken from US6410740B1, “Heterocyclylmethyl-substituted pyrazol derivatives” (Bayer Aktiengesellschaft, priority 1996, dated 2002).
